The record followed here is US6965035B1, “Compacted forms of halogenated hydantoins” (priority 2002, dated 2005).

Holding throughout (type): physicochemical
A short description of data set [1]: Dissolution of granules or tablets in swimming pool skimmer basket under recirculated pool water. The text has this:
A swimming pool skimmer basket was divided into two halves by means of a simple plastic partition placed across the basket diameter. One half of the basket had 50 grams of pure (wax-free) DBDMH granules placed in it. In the other half of the skimmer basket was placed 50 grams of DBDMH/1 wt % MPP-611 wax granules. […] The basket, containing both sets of granules, was introduced to the skimmer of an above-ground pool. Swimming pool water was pumped past the granules in the skimmer basket by means of the pool recirculation pump. The flow rate was around 30 gallons per minute (gpm) and the water temperature was 60° F. (15.5° C.). After 6 hours, the pump was turned off and the skimmer basket containing the partially-dissolved granules was removed. The granules were removed from their respective halves of the skimmer basket and placed in crystallizing dishes to dry overnight. Each set of granules was reweighed. The weight of the undissolved portion was subtracted from the initial weight, and the amount dissolved (the difference) was expressed in terms of % dissolved (the relative dissolution rate). Table 5 lists the relative amount dissolved for both sets of granules. The procedures described in Example 4 were repeated using pure (wax-free) DBDMH granules and DBDMH/2 wt % MPP-611 wax granules. The water temperature was 66° F. (19° C.). Table 5 lists the relative amount dissolved for both sets of granules. The skimmer basket setup described in Example 4 was used. In one half of the basket, tablets of DBDMH/3 wt % MPP-611 wax (5×24 g; total weight, 120 g; each tablet is 1 inch in diameter) were placed an equal distance apart from each other. In the other half of the basket, tablets of pure (wax-free) 1,3-bromochloro-5,5-dimethylhydantoin (BCDMH; 5×20 g; total weight, 100 g) were similarly arranged. Both sets of tablets were one inch in diameter, so the effective surface area exposed was approximately the same for each set of tablets. The skimmer basket containing the tablets was placed into the skimmer of an above-ground swimming pool. Pool water was pumped past the tablets in the skimmer basket by means of the pool recirculation pump. The flow rate was around 30 gpm, the water temperature was 82.1° F. (27.8° C.), and water was recirculated for 16 hours. The tablets were dried and re-weighed. The weight of the undissolved portion was subtracted from the initial weight, and the amount dissolved (the difference) was expressed in terms of % dissolved (the relative dissolution rate). The amount of product dissolved was 75.5 g for the BCDMH tablets and 13.4 g for the DBDMH/3 wt % MPP-611 wax tablets. The BCDMH tablets dissolved at a rate 5.6 times faster (based on weight dissolved) than the DBDMH/3 wt % MPP-611 wax tablets. Based on the respective solubility of wax-free DBDMH and BCDMH powders, a relative dissolution factor of about 2 would have been expected (with the BCDMH dissolving faster).

Data set [2] is described as follows: Specific surface area of granules by nitrogen adsorption BET technique. The conditions noted are these: 3.5–5 mesh granules, material from recycle compaction (Runs 1–3). How it is done: To minimize size effects, a 3.5–5 mesh cut of the granulated material was used in this experiment. The material used in Runs 1–3 were from recycle compaction, and the material used in Run 4 was from first-run compaction. The surface area of the granules was determined by the well-known nitrogen adsorption BET technique. The BET technique consists of (1) removing adsorbed gases from the sample with heat and vacuum, (2) adsorbing a mono-layer of nitrogen on the surface at liquid nitrogen temperature, (3) measuring the amount of adsorbed nitrogen, and (4) calculating the total surface area of the sample from an assumed cross-sectional area of nitrogen molecules. The total surface area was divided by the sample weight to yield the specific surface area. Specific surface area is defined as the exposed surface area of 1 gram of the sample tested. A Coulter Model 3100 instrument was used.

Data set [3] is described as follows: Peak load tolerance test of granules (Sintech 1/S compression apparatus). The conditions noted are these: 3.5–5 mesh cut of granules; average of ten runs; standard deviation in parentheses. As to the method: To minimize size effects, a 3.5–5 mesh cut of the granulated material was used in this experiment. Peak load tests were performed on DBDMH granules without wax, with 1 wt % wax, and with 2 wt % wax. The wax in both instances was micronized polyethylene wax (MPP-611). Granules of approximately the same size were selected by visual inspection; measurements of the thickness of the granules were not made because of the very irregular shapes of the granules. Peak load tolerance tests were performed utilizing a Sintech® 1/S compression apparatus (MTS Systems Corporation, Edenprairie, Minn.) equipped with Testworks software. The apparatus included a horizontal circular-shaped load cell interfaced with a computer, a digital micrometer also interfaced with the computer, and a vertical screw-driven piston disposed above the load cell and adapted to apply a downward force perpendicular to the load cell. Each granule was placed on its edge on the load cell with the piston in contact with at least a part of the upper edge of the granule. The piston often could not contact the entire upper edge of the granule due the irregular morphology of the granule. […] At the same time, the load cell continuously measured the downward force being applied to the granule, and the input of such measurements was transmitted to the computer. […]

With `CC1(C)C(=O)N(Cl)C(=O)N1Br` [BCDMH tablets (no wax), 1,3-bromochloro-5,5-dimethylhydantoin], the Amount dissolved in data set [1] (1 inch tablets, about 30 gpm, water 82.1° F. (27.8° C.), 16 hours (text Example 6)) worked out at 75.5%. Further, the “Amount of product dissolved” value in data set [1] (tablets, 5×20 g BCDMH or 5×24 g DBDMH/wax, about 30 gpm, 82.1° F., 16 hours) is on record as 75.5 g. Also, the “Dissolution rate relative to DBDMH/3 wt % MPP-611 wax tablets (based on weight dissolved)” value in data set [1] (tablets, 82.1° F., 16 hours) is 5.6 times faster.

Take `CC1(C)C(=O)N(Br)C(=O)N1Br` [DBDMH, wax-free, 1,3-dibromo-5,5-dimethylhydantoin]: the Amount dissolved in data set [1] (50 g granules >8 U.S. mesh, about 30 gpm, water 60° F. (15.5° C.), 6 hours (text Example 4)) is given as 44%; in data set [1] (50 g granules, about 30 gpm, water 66° F. (19° C.), 6 hours (text Example 5)), 60%. For the same compound, the “Surface Area” value in data set [2] is listed as 5.1 m^2/g. Moreover, the Average peak load in data set [3] was 11.7 (3.4) lb.
